Test results: patent US20250154173A1 (Merck Sharp & Dohme LLC, priority 2023, published 2025)

molecular target: T1, GST-RIPK1 (recombinant GST-RIPK1 kinase domain (residues 1-327)) (Homo sapiens, UniProt Q13546); assay: RIPK1-ADP-Glo Enzymatic Assay; assay type: biochemical; conditions: ten-point titration, top compound concentration of 100000 nM; 25 nM GST-RIPK1, 300 μM ATP, 3 μM dephosphorylated-MBP; 30 min pre-incubation, 150 min reaction
T1 construct: recombinant GST-RIPK1 kinase domain (residues 1-327) enzyme produced from baculovirus-transfected Sf21 cells; host or cells: baculovirus-transfected Sf21 insect cells
T1 sequence (Q13546 1-327): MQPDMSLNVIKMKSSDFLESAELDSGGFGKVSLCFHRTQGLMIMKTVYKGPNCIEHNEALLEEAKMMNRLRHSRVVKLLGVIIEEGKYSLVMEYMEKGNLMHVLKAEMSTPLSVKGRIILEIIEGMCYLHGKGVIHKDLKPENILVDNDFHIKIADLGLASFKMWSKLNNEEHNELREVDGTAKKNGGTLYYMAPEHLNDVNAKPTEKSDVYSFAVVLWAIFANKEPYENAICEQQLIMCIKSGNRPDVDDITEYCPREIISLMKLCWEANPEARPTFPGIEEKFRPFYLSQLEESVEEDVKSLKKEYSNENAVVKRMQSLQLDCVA
Summary of the method: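 ADP-Glo luminescence quantifies ADP formed over 150 minutes by 25 nM Sf21-produced GST-RIPK1 (1-327) using 300 μM ATP and 3 μM dephosphorylated MBP, following 30-minute compound preincubation at 1% DMSO. Ten-point 1:3 series from 100000 nM gave EC50 via four-parameter sigmoidal regression.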

SMILES | EC50 [nM]
COc1ccc(C#N)nc1COC1CC2(C1)OC1CC[C@@H](c3cnccn3)N1C2=O (stereo partly drawn) [Example 18.75, 5-methoxy-6-({[(5′S)-3′-oxo-5′-(pyrazin-2-yl)tetrahydro-3′H-spiro[cyclobutane-1,2′-pyrrolo[2,1-b][1,3]oxazol]-3-yl]oxy}methyl)pyridine-2-carbonitrile] | 896
O=C1N2C(CC[C@H]2c2cnccn2)OC12CC(OCc1cccc(Cn3ccnn3)c1)C2 (stereo partly drawn) [Example 18.76, (5′S)-5′-(pyrazin-2-yl)-3-({3-[(1H-1,2,3-triazol-1-yl)methyl]phenyl}methoxy)tetrahydro-3′H-spiro[cyclobutane-1,2′-pyrrolo[2,1-b][1,3]oxazol]-3′-one] | 168
O=C1N2C(CC[C@H]2c2cnccn2)OC12CC(OCc1cncc(OCCF)c1)C2 (stereo partly drawn) [Example 18.77, (5′S)-3-{[5-(2-fluoroethoxy)pyridin-3-yl]methoxy}-5′-(pyrazin-2-yl)tetrahydro-3′H-spiro[cyclobutane-1,2′-pyrrolo[2,1-b][1,3]oxazol]-3′-one] | 174
N#CC1(c2ccc(COC3CC4(C3)OC3CC[C@@H](c5cnccn5)N3C4=O)cn2)CCC1 (stereo partly drawn) [Example 18.78, 1-[5-({[(5′S)-3′-oxo-5′-(pyrazin-2-yl)tetrahydro-3′H-spiro[cyclobutane-1,2′-pyrrolo[2,1-b][1,3]oxazol]-3-yl]oxy}methyl)pyridin-2-yl]cyclobutane-1-carbonitrile] | 721
N#CC1(c2ccc(COC3CC4(C3)OC3CC[C@@H](c5cnccn5)N3C4=O)c(Cl)c2)CC1 (stereo partly drawn) [Example 18.79, 1-[3-chloro-4-({[(5′S)-3′-oxo-5′-(pyrazin-2-yl)tetrahydro-3′H-spiro[cyclobutane-1,2′-pyrrolo[2,1-b][1,3]oxazol]-3-yl]oxy}methyl)phenyl]cyclopropane-1-carbonitrile] | 20
O=C1N2C(CC[C@H]2c2cnccn2)OC12CC(OCc1ccc(-c3ccon3)cc1)C2 (stereo partly drawn) [Example 18.80, (5′S)-3-{[4-(1,2-oxazol-3-yl)phenyl]methoxy}-5′-(pyrazin-2-yl)tetrahydro-3′H-spiro[cyclobutane-1,2′-pyrrolo[2,1-b][1,3]oxazol]-3′-one] | 45
COc1ccc2cc(COC3CC4(C3)OC3CC[C@@H](c5cnccn5)N3C4=O)ncc2n1 (stereo partly drawn) [Example 18.81, (5′S)-3-[(2-methoxy-1,7-naphthyridin-6-yl)methoxy]-5′-(pyrazin-2-yl)tetrahydro-3′H-spiro[cyclobutane-1,2′-pyrrolo[2,1-b][1,3]oxazol]-3′-one] | 756
O=C1N2C(CC[C@H]2c2cnccn2)OC12CC(OCc1cc(Cl)ccc1-c1cnco1)C2 (stereo partly drawn) [Example 18.82, (5′S)-3-{[5-chloro-2-(1,3-oxazol-5-yl)phenyl]methoxy}-5′-(pyrazin-2-yl)tetrahydro-3′H-spiro[cyclobutane-1,2′-pyrrolo[2,1-b][1,3]oxazol]-3′-one] | 99
COc1cc(COC2CC3(C2)OC2CC[C@@H](c4cnccn4)N2C3=O)cc2nccn12 (stereo partly drawn) [Example 18.83, (5′S)-3-[(5-methoxyimidazo[1,2-a]pyridin-7-yl)methoxy]-5′-(pyrazin-2-yl)tetrahydro-3′H-spiro[cyclobutane-1,2′-pyrrolo[2,1-b][1,3]oxazol]-3′-one] | 140
O=C1N2C(CC[C@H]2c2cnccn2)OC12CC(OCc1cc(-n3ccnc3)ccn1)C2 (stereo partly shown) [Example 18.87] | 583
O=C1N2C(CC[C@H]2c2cnccn2)OC12CC(OCc1cnc3c(c1)CCCC3)C2 (stereo partly drawn) [Example 18.90, (5′S)-5′-(pyrazin-2-yl)-3-[(5,6,7,8-tetrahydroquinolin-3-yl)methoxy]tetrahydro-3′H-spiro[cyclobutane-1,2′-pyrrolo[2,1-b][1,3]oxazol]-3′-one] | 780
O=C1N2C(CC[C@H]2c2cnccn2)OC12CC(OCc1ccc3c(c1)CCO3)C2 (stereo partly drawn) [Example 18.92, (5′S)-3-[(2,3-dihydro-1-benzofuran-5-yl)methoxy]-5′-(pyrazin-2-yl)tetrahydro-3′H-spiro[cyclobutane-1,2′-pyrrolo[2,1-b][1,3]oxazol]-3′-one] | 243
N#Cc1ccncc1COC1CC2(C1)OC1CC[C@@H](c3cnccn3)N1C2=O (stereo partly drawn) [Example 18.93, 3-({[(5′S)-3′-oxo-5′-(pyrazin-2-yl)tetrahydro-3′H-spiro[cyclobutane-1,2′-pyrrolo[2,1-b][1,3]oxazol]-3-yl]oxy}methyl)pyridine-4-carbonitrile] | 329
O=C1N2C(CC[C@H]2c2cnccn2)OC12CC(OCc1cnc3nccn3c1)C2 (stereo partly drawn) [Example 18.94, (5′S)-3-[(imidazo[1,2-a]pyrimidin-6-yl)methoxy]-5′-(pyrazin-2-yl)tetrahydro-3′H-spiro[cyclobutane-1,2′-pyrrolo[2,1-b][1,3]oxazol]-3′-one] | 283
N#CCCc1ccc(COC2CC3(C2)OC2CC[C@@H](c4cnccn4)N2C3=O)cc1 (stereo partly drawn) [Example 18.95, 3-[4-({[(5′S)-3′-oxo-5′-(pyrazin-2-yl)tetrahydro-3′H-spiro[cyclobutane-1,2′-pyrrolo[2,1-b][1,3]oxazol]-3-yl]oxy}methyl)phenyl]propanenitrile] | 130

More lines, in order of falling EC50, values ahead:

EC50 [nM] | SMILES
238 | COc1ccc2cc(COC3CC4(C3)OC3CC[C@@H](c5cnccn5)N3C4=O)cc(C)c2n1 (stereo partly drawn) [Example 18.89, (5′S)-3-[(2-methoxy-8-methylquinolin-6-yl)methoxy]-5′-(pyrazin-2-yl)tetrahydro-3′H-spiro[cyclobutane-1,2′-pyrrolo[2,1-b][1,3]oxazol]-3′-one]
182 | O=C1N2C(CC[C@H]2c2cnccn2)OC12CC(OCc1cccc3nccn13)C2 (stereo partly drawn) [Example 18.84, (5′S)-3-[(imidazo[1,2-a]pyridin-5-yl)methoxy]-5′-(pyrazin-2-yl)tetrahydro-3′H-spiro[cyclobutane-1,2′-pyrrolo[2,1-b][1,3]oxazol]-3′-one]
169 | N#Cc1ccc(OC2CCC2)cc1COC1CC2(C1)OC1CC[C@@H](c3cnccn3)N1C2=O (stereo partly drawn) [Example 18.88, 4-(cyclobutyloxy)-2-({[(5′S)-3′-oxo-5′-(pyrazin-2-yl)tetrahydro-3′H-spiro[cyclobutane-1,2′-pyrrolo[2,1-b][1,3]oxazol]-3-yl]oxy}methyl)benzonitrile]
94 | COc1ccc(COC2CC3(C2)OC2CC[C@@H](c4cnccn4)N2C3=O)cc1CC#N (stereo partly drawn) [Example 18.86, [2-methoxy-5-({[(5′S)-3′-oxo-5′-(pyrazin-2-yl)tetrahydro-3′H-spiro[cyclobutane-1,2′-pyrrolo[2,1-b][1,3]oxazol]-3-yl]oxy}methyl)phenyl]acetonitrile]
92 | O=C1N2C(CC[C@H]2c2cnccn2)OC12CC(OCc1ccc(Cn3ccnc3)cc1)C2 (stereo partly drawn) [Example 18.74, (5′S)-3-({4-[(1H-imidazol-1-yl)methyl]phenyl}methoxy)-5′-(pyrazin-2-yl)tetrahydro-3′H-spiro[cyclobutane-1,2′-pyrrolo[2,1-b][1,3]oxazol]-3′-one]
79 | O=C1N2C(CC[C@H]2c2cnccn2)OC12CC(OCc1ccc3cnccc3c1)C2 (stereo partly drawn) [Example 18.85, (5′S)-3-[(isoquinolin-6-yl)methoxy]-5′-(pyrazin-2-yl)tetrahydro-3′H-spiro[cyclobutane-1,2′-pyrrolo[2,1-b][1,3]oxazol]-3′-one]
22 | O=C1N2C(CC[C@H]2c2cnccn2)OC12CC(OCc1cc3ncccc3s1)C2 (stereo partly drawn) [Example 18.91, (5′S)-5′-(pyrazin-2-yl)-3-[(thieno[3,2-b]pyridin-2-yl)methoxy]tetrahydro-3′H-spiro[cyclobutane-1,2′-pyrrolo[2,1-b][1,3]oxazol]-3′-one]
